Counter-ions that a name gives are not always drawn.
Experiments:
NS5B 1b = molecular target: T1, NS5B 1b (Hepatitis C virus genotype 1b, UniProt P26663); experiment: Assay of enzyme (HCV polymerase) inhibitory activity, NS5B 1b; type: biochemical
T1 construct: a region encoding NS5B (J Virol 1991 March, 65(3), 1105-13, 544 amino acids after deletion of 47 amino acids on the C-terminal); 6 His (C); made in house; host or cells: Escherichia coli
From the text: The evaluation of the HCV polymerase inhibitory activity of the compound of the present invention is explained in the following. This polymerase is an enzyme coded for by the non-structural protein region called NS5B on the genome RNA of HCV (EMBO J., 15:12-22, 1996).
i) Preparation of enzyme (HCV polymerase)
Using, as a template, a cDNA clone corresponding to the full length genome RNA of HCV BK strain obtained from the blood of a patient with hepatitis C, a region encoding NS5B (J Virol 1991 March, 65(3), 1105-13, 544 amino acids after deletion of 47 amino acids on the C-terminal) was amplified by PCR. The objective gene was prepared by adding a 6 His tag {base pair encoding 6 continuous histidine (His)} to the 3′ end thereof and transformed to Escherichia coli. The Escherichia coli capable of producing the objective protein was cultured. The obtained cells were suspended in a buffer solution and crushed in a microfluidizer. The supernatant was obtained by centrifugation and applied to various column chromatographys {mono-S, Sephacryl S-200 (Pharmacia)}, inclusive of metal chelate chromatography, to give a standard enzyme product.
ii) Synthesis of Substrate RNA
Using a synthetic primer designed based on the sequence of HCV genomic 3′ untranslated region, a DNA fragment (148 bp) containing polyU and 3′X sequence was entirely synthesized and cloned into plasmid pBluescript SK II(+) (Stratagene). The cDNA encoding full length NS5B, which was prepared in i) above, was digested with restriction enzyme KpnI to give a cDNA fragment containing the nucleotide sequence of from the restriction enzyme cleavage site to the termination codon. This cDNA fragment was inserted into the upstream of 3′ untranslated region of the DNA in pBluescript SK II(+) and ligated. The about 450 bp inserted DNA sequence was used as a template in the preparation of substrate RNA. This plasmid was cleaved immediately after the 3′X sequence, linearized and purified by phenol-chloroform treatment and ethanol precipitation to give DNA.
RNA was synthesized (37° C., 3 hr) by run-off method using this purified DNA as a template, a promoter of pBluescript SK II(+), MEGAscript RNA synthesis kit (Ambion) and T7 RNA polymerase. DNase I was added and the mixture was incubated for 1 hr. The template DNA was removed by decomposition to give a crude RNA product. This crude product was treated with phenol-chloroform and purified by ethanol precipitation to give the objective substrate RNA.
This RNA was applied to formaldehyde denaturation agarose gel electrophoresis to confirm the quality thereof and preserved at −80° C. iii) Assay of enzyme (HCV polymerase) inhibitory activity A test substance (compound of the present invention) and a reaction mixture (30 μl) having the following composition were reacted at 25° C. for 90 min.
10% Trichloroacetic acid at 4° C. and 1% sodium pyrophosphate solution (150 μl) were added to this reaction mixture to stop the reaction. The reaction mixture was left standing in ice for 15 min to insolubilize RNA. This RNA was trapped on a glass filter (Whatman GF/C and the like) upon filtration by suction. This filter was washed with a solution containing 1% trichloroacetic acid and 0.1% sodium pyrophosphate, washed with 90% ethanol and dried. A liquid scintillation cocktail (Packard) was added and the radioactivity of RNA synthesized by the enzyme reaction was measured on a liquid scintillation counter.
The HCV polymerase inhibitory activity (IC50) of the compound of the present invention was calculated from the values of radioactivity of the enzyme reaction with and without the 20 test substance. […]

NS5B 1a = molecular target: T2, NS5B 1a (Hepatitis C virus genotype 1a, UniProt P27958); experiment: Assay of enzyme (HCV polymerase) inhibitory activity, NS5B 1a; type: biochemical; settings: HCV polymerase NS5B 1a; [3H]UTP incorporation, 25° C., 90 min
T2 construct: NS5B 1a
T2 sequence (P27958 2421-3011): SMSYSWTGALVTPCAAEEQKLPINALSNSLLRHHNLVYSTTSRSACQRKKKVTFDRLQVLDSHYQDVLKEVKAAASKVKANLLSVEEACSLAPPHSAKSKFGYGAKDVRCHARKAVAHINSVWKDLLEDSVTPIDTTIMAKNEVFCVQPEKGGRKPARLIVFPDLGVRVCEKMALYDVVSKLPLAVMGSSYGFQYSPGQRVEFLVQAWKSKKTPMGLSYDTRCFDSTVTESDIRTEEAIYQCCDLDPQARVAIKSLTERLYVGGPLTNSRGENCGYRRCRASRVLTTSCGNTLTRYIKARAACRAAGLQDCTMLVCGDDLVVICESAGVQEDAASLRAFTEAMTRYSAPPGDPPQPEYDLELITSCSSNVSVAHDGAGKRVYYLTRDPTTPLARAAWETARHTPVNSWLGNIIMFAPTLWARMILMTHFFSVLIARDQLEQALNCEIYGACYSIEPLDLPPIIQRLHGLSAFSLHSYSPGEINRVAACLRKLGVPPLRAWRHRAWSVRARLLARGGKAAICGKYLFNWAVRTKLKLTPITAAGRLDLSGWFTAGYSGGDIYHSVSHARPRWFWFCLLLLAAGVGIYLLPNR

T1 sequence (P26663 2420-2963): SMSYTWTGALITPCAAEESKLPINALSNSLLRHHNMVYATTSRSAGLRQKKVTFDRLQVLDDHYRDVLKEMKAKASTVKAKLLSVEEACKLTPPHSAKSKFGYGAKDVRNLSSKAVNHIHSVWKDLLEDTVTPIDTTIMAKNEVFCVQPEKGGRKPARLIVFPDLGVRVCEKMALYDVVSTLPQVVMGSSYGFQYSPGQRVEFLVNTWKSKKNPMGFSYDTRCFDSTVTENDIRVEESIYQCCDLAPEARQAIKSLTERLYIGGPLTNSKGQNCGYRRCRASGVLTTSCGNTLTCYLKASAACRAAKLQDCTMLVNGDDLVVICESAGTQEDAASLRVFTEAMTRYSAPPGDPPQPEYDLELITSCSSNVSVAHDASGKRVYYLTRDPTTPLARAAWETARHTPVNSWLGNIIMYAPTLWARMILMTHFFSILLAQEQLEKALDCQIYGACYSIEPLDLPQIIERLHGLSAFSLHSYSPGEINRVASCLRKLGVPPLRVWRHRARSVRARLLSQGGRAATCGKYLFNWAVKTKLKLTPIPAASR

| SMILES | IC50 (NS5B 1b) [nM] | IC50 (NS5B 1a) [nM] |
| --- | --- | --- |
| CS(=O)(=O)c1ccc(N2CCOCC2)c(COc2ccc3c(c2)OCCn2c-3c(C3CCCCC3)c3sc(C(=O)O)cc32)c1 [Example 3, 11-cyclohexyl-8-[5-methanesulfonyl-2-(morpholin-4-yl)benzyloxy]-4,5-dihydro-6-oxa-1-thia-3b-azabenzo[e]cyclopenta[a]azulene-2-carboxylic acid] | < 10 | 10 to 100 |
| CS(=O)(=O)c1ccc(N2CCOCC2)c(COc2ccc3c(c2)OCCn2c-3c(C3CCCCC3)c3sc(C(N)=O)cc32)c1 [Example 4, 11-cyclohexyl-8-[5-methanesulfonyl-2-(morpholin-4-yl)benzyloxy]-4,5-dihydro-6-oxa-1-thia-3b-azabenzo[e]cyclopenta[a]azulene-2-carboxamide] | < 10 | 10 to 100 |
| O=C(O)c1cc2c(s1)c(C1CCCCC1)c1n2CCN(CCN2CCCCC2)c2ccccc2-1 [Example 8, 11-cyclohexyl-6-[2-(piperidin-1-yl)ethyl]-5,6-dihydro-4H-1-thia-3b,6-diazabenzo[e]cyclopenta[a]azulene-2-carboxylic acid dihydrochloride] | 10 to 100 | 10 to 100 |
| CC(C)(C)OC(=O)N1CCN(CCN2CCn3c(c(C4CCCCC4)c4sc(C(=O)O)cc43)-c3ccccc32)CC1 [Example 11, 6-[2-(4-tert-butoxycarbonylpiperazin-1-yl)ethyl]-11-cyclohexyl-5,6-dihydro-4H-1-thia-3b,6-diazabenzo[e]cyclopenta[a]azulene-2-carboxylic acid hydrochloride] | 10 to 100 | 10 to 100 |
| CCN1CCN(C(=O)CN2CCn3c(c(C4CCCCC4)c4sc(C(=O)O)cc43)-c3ccccc32)CC1 [Example 14, 11-cyclohexyl-6-[2-(4-ethylpiperazin-1-yl)-2-oxoethyl]-5,6-dihydro-4H-1-thia-3b,6-diazabenzo[e]cyclopenta[a]azulene-2-carboxylic acid dihydrochloride] | 10 to 100 | 10 to 100 |
| O=C(O)c1cc2c(s1)c(C1CCCCC1)c1n2CCOc2ccccc2-1 [Example 15, 11-cyclohexyl-4,5-dihydro-6-oxa-1-thia-3b-azabenzo[e]cyclopenta[a]azulene-2-carboxylic acid] | 10 to 100 | 100 to 1000 |
| O=C(O)c1cc2c(s1)c(C1CCCCC1)c1n2CCOc2cc(OCc3cc(N4CCCC4=O)ccc3N3CCOCC3)ccc2-1 [Example 16, 11-cyclohexyl-8-[2-(morpholin-4-yl)-5-(2-oxopyrrolidin-1-yl)benzyloxy]-4,5-dihydro-6-oxa-1-thia-3b-azabenzo[e]cyclopenta[a]azulene-2-carboxylic acid hydrochloride] | < 10 | 10 to 100 |
| COC(=O)N1CCCC(Oc2ccc3c(c2)OCCn2c-3c(C3CCCCC3)c3sc(C(=O)O)cc32)C1 (stereo not shown) [Example 17, 11-cyclohexyl-8-(1-methoxycarbonylpiperidin-3-yloxy)-4,5-dihydro-6-oxa-1-thia-3b-azabenzo[e]cyclopenta[a]azulene-2-carboxylic acid] | 10 to 100 | 10 to 100 |
| CS(=O)(=O)N1CCN(c2ccc(N3CCCC3=O)cc2COc2ccc3c(c2)OCCn2c-3c(C3CCCCC3)c3sc(C(=O)O)cc32)CC1 [Example 18, 11-cyclohexyl-8-[2-(4-methanesulfonylpiperazin-1-yl)-5-(2-oxopyrrolidin-1-yl)benzyloxy]-4,5-dihydro-6-oxa-1-thia-3b-azabenzo[e]cyclopenta[a]azulene-2-carboxylic acid] | < 10 | < 10 |
| Cc1ccc2c(c1)N(CCN1CCCCC1)CCn1c-2c(C2CCCCC2)c2sc(C(=O)O)cc21 [Example 19, 11-cyclohexyl-8-methyl-6-[2-(piperidin-1-yl)ethyl]-5,6-dihydro-4H-1-thia-3b,6-diazabenzo[e]cyclopenta[a]azulene-2-carboxylic acid dihydrochloride] | < 10 | 10 to 100 |
| O=C(O)c1cc2c(s1)c(C1CCCCC1)c1n2CCN(CCN2CCCCC2)c2cc(Cl)ccc2-1 [Example 20, 8-chloro-11-cyclohexyl-6-[2-(piperidin-1-yl)ethyl]-5,6-dihydro-4H-1-thia-3b,6-diazabenzo[e]cyclopenta[a]azulene-2-carboxylic acid dihydrochloride] | 10 to 100 | 10 to 100 |
| O=C(O)c1cc2c(s1)c(C1CCCCC1)c1n2CCN(CCN2CCCCCCC2)c2ccccc2-1 [Example 21, 6-[2-(azocan-1-yl)ethyl]-11-cyclohexyl-5,6-dihydro-4H-1-thia-3b,6-diazabenzo[e]cyclopenta[a]azulene-2-carboxylic acid dihydrochloride] | < 10 | 10 to 100 |
| CC1CCCN(CCN2CCn3c(c(C4CCCCC4)c4sc(C(=O)O)cc43)-c3ccccc32)C1 (stereo not shown) [Example 22, 11-cyclohexyl-6-[2-(3-methylpiperidin-1-yl)ethyl]-5,6-dihydro-4H-1-thia-3b,6-diazabenzo[e]cyclopenta[a]azulene-2-carboxylic acid dihydrochloride] | 10 to 100 | 10 to 100 |
| COCC[C@@H]1CCCN(CCN2CCn3c(c(C4CCCCC4)c4sc(C(=O)O)cc43)-c3ccccc32)C1 [Example 23, (S)-11-cyclohexyl-6-{2-[3-(2-methoxyethyl)piperidin-1-yl]ethyl)-5,6-dihydro-4H-1-thia-3b,6-diazabenzo[e]cyclopenta[a]azulene-2-carboxylic acid dihydrochloride] | 10 to 100 | 10 to 100 |
| O=C(O)c1cc2c(s1)c(C1CCCCC1)c1n2CCN(CCN2CCCOCC2)c2ccccc2-1 [Example 24, 11-cyclohexyl-6-[2-(1,4-oxazepan-4-yl)ethyl]-5,6-dihydro-4H-1-thia-3b,6-diazabenzo[e]cyclopenta[a]azulene-2-carboxylic acid dihydrochloride] | 10 to 100 | 10 to 100 |
| Cc1ccc2c(c1)N(CCN1CCCCCCC1)CCn1c-2c(C2CCCCC2)c2sc(C(=O)O)cc21 [Example 25, 6-[2-(azocan-1-yl)ethyl]-11-cyclohexyl-8-methyl-5,6-dihydro-4H-1-thia-3b,6-diazabenzo[e]cyclopenta[a]azulene-2-carboxylic acid dihydrochloride] | < 10 | 10 to 100 |
| Cc1ccc2c(c1)N(CCN1CCCC(C)C1)CCn1c-2c(C2CCCCC2)c2sc(C(=O)O)cc21 (stereo not shown) [Example 26, 11-cyclohexyl-8-methyl-6-[2-(3-methylpiperidin-1-yl)ethyl]-5,6-dihydro-4H-1-thia-3b,6-diazabenzo[e]cyclopenta[a]azulene-2-carboxylic acid dihydrochloride] | 10 to 100 | 10 to 100 |
| COCC[C@@H]1CCCN(CCN2CCn3c(c(C4CCCCC4)c4sc(C(=O)O)cc43)-c3ccc(C)cc32)C1 [Example 27, (S)-11-cyclohexyl-6-{2-[3-(2-methoxyethyl)piperidin-1-yl]ethyl}-8-methyl-5,6-dihydro-4H-1-thia-3b,6-diazabenzo[e]cyclopenta[a]azulene-2-carboxylic acid dihydrochloride] | 10 to 100 | 10 to 100 |
| Cc1ccc2c(c1)N(CCN1CCCOCC1)CCn1c-2c(C2CCCCC2)c2sc(C(=O)O)cc21 [Example 28, 11-cyclohexyl-8-methyl-6-[2-(1,4-oxazepan-4-yl)ethyl]-5,6-dihydro-4H-1-thia-3b,6-diazabenzo[e]cyclopenta[a]azulene-2-carboxylic acid dihydrochloride] | 10 to 100 | 10 to 100 |
| O=C(O)c1cc2c(s1)c(C1CCCCC1)c1n2CCN(CCN2CCCCCCC2)c2cc(Cl)ccc2-1 [Example 29, 6-[2-(azocan-1-yl)ethyl]-8-chloro-11-cyclohexyl-5,6-dihydro-4H-1-thia-3b,6-diazabenzo[e]cyclopenta[a]azulene-2-carboxylic acid dihydrochloride] | 10 to 100 | 10 to 100 |
